Results as given in the supplement of paper PMC11061612.

What was measured:
Experiment in all cases: Bliss excess, mean over the matrix (fraction); higher = more synergy
[1] = tested on: 8305C (Thyroid Gland Carcinoma)
How it was run: (§1)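 Cell lines in DMEM/F12 or RPMI with 10% FBS were plated in 1536-well plates, held 24 hours at 37°C, 5% CO2, then given two-drug dose matrices for 72 hours (DMSO typically 0.2%). Viability was read by CellTiter-Glo 2.0 luminescence and scaled as inhibition from 0 (vehicle wells) to 1 (blank wells). Combination Emax is the second-highest inhibition in the matrix; Bliss excess is observed combination effect minus expected EA + EB − EA·EB, EA and EB being single-agent effects.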

[2] = tested on: CAL-51 (Breast Carcinoma)
How it was run: as §1

[3] = tested on: CAL-54 (Kidney Carcinoma)
How it was run: as §1

[4] = tested on: HCC-15 (Squamous Cell Lung Carcinoma)
How it was run: as §1

[5] = tested on: HDLM-2 (Hodgkin's Lymphoma)
How it was run: as §1

[6] = tested on: K5 (Thyroid Gland Carcinoma)
How it was run: as §1

[7] = tested on: KYSE-410 (Esophageal Squamous Cell Carcinoma)
How it was run: as §1

[8] = tested on: LU-139 (Small Cell Lung Carcinoma)
How it was run: as §1

[9] = tested on: MHH-PREB-1 (B-Cell Non-Hodgkin's Lymphoma)
How it was run: as §1

Mewo (Melanoma) = tested on: Mewo (Melanoma)
How it was run: as §1

NCI-H2461 (Mesothelioma) = tested on: NCI-H2461 (Mesothelioma)
How it was run: as §1

NCI-H2795 (Mesothelioma) = tested on: NCI-H2795 (Mesothelioma)
How it was run: as §1

NCI-H28 (Mesothelioma) = tested on: NCI-H28 (Mesothelioma)
How it was run: as §1

[10] = tested on: OC-314 (Ovarian Carcinoma)
How it was run: as §1

[11] = tested on: RKO (Colorectal Carcinoma)
How it was run: as §1

[12] = tested on: SK-OV-3 (Ovarian Carcinoma)
How it was run: as §1

[13] = tested on: SU-DHL-6 (B-Cell Non-Hodgkin's Lymphoma)
How it was run: as §1

[14] = tested on: SW1116 (Colorectal Carcinoma)
How it was run: as §1

[15] = tested on: SW1271 (Small Cell Lung Carcinoma)
How it was run: as §1

[16] = tested on: SW626 (Colorectal Carcinoma)
How it was run: as §1

SMILES | Bliss excess [1] | Bliss excess [2] | Bliss excess [3] | Bliss excess [4] | Bliss excess [5] | Bliss excess [6] | Bliss excess [7] | Bliss excess [8] | Bliss excess [9] | Bliss excess (Mewo (Melanoma)) | Bliss excess (NCI-H2461 (Mesothelioma)) | Bliss excess (NCI-H2795 (Mesothelioma)) | Bliss excess (NCI-H28 (Mesothelioma)) | Bliss excess [10] | Bliss excess [11] | Bliss excess [12] | Bliss excess [13] | Bliss excess [14] | Bliss excess [15] | Bliss excess [16]
CN(C)CCCOc1ccc(-c2ccc3ncc4c(c3c2)n(C2CCOCC2)c(=O)n4C)cn1 [AZD0156] + C=CCn1c(=O)c2cnc(Nc3ccc(N4CCN(C)CC4)cc3)nc2n1-c1cccc(C(C)(C)O)n1 [AZD1775] (first compound max 1 µM, partner max 1 µM) | 0.012 | -0.0303 | -0.043 | -0.0346 | -0.0554 | -0.0003 | -0.0464 | -0.0479 | 0.0036 | -0.05 | -0.0451 | -0.0131 | -0.0066 | -0.0141 | -0.0252 | -0.0433 | -0.0384 | -0.0336 | -0.0895 | -0.0576
Cn1cnc2c(F)c(Nc3ccc(Br)cc3Cl)c(C(=O)NOCCO)cc21 [Selumetinib] + C=CCn1c(=O)c2cnc(Nc3ccc(N4CCN(C)CC4)cc3)nc2n1-c1cccc(C(C)(C)O)n1 [AZD1775] (first compound max 10 µM, partner max 1 µM) | -0.0383 | -0.0175 | -0.076 | 0.0018 | -0.092 | -0.0375 | 0.0543 | 0.0238 | -0.0531 | -0.0304 | -0.0676 | -0.0298 | -0.0376 | -0.027 | -0.0202 | -0.0656 | -0.0229 | -0.0031 | -0.0806 | -0.0577
CN(CCO)CC[C@H](CSc1ccccc1)Nc1ccc(S(=O)(=O)NC(=O)c2ccc(N3CCC([C@@H](O)c4ccccc4-c4ccc(Cl)cc4)CC3)cc2)cc1S(=O)(=O)C(F)(F)F [AZD4320] + Cn1cnc2c(F)c(Nc3ccc(Br)cc3Cl)c(C(=O)NOCCO)cc21 [Selumetinib] (first compound max 1 µM, 7x7, partner max 3 µM) | 0.097 | 0.0502 | 0.0336 | 0.0827 | 0.0231 | -0.0637 | 0.0417 | -0.006 | 0.0272 | 0.0374 | 0.0248 | -0.02 | 0.0103 | 0.0048 | 0.0229 | -0.0362 | -0.0145 | 0.0737 | 0.0306 | 0.0271
Cc1cc2ncnn2cc1Nc1ncc2c(n1)n(C1CCOCC1)c(=O)n2C [AZD7648] + CCN(CCO)CCCOc1ccc2c(Nc3cc(CC(=O)Nc4cccc(F)c4)[nH]n3)ncnc2c1 [AZD2811] (first compound max 10 µM, 7x7, partner max 1 µM) | -0.0159 | 0.076 | 0.0156 | 0.0043 | -0.0457 | 0.0013 | -0.0046 | 0.0273 | 0.0617 | 0.0082 | -0.0105 | 0.009 | 0.0016 | 0.0565 | 0.0369 | -0.0193 | 0.0052 | 0.012 | -0.0081 | -0.0688
CS(=O)(=O)CCNCc1ccc(-c2ccc3ncnc(Nc4ccc(OCc5cccc(F)c5)c(Cl)c4)c3c2)o1 [Lapatinib] + C[C@@H](Oc1cc(-c2cnn(C3CCNCC3)c2)cnc1N)c1c(Cl)ccc(F)c1Cl [Crizotinib] (first compound max 10 µM, 7x7, partner max 10 µM) | -0.169 | -0.0029 | -0.0801 | -0.0179 | -0.0545 | -0.0213 | -0.0183 | -0.0147 | -0.0164 | -0.032 | -0.0523 | -0.0569 | -0.0342 | -0.0479 | -0.0977 | -0.0268 | -0.0299 | -0.0106 | -0.03 | -0.0681
NC1(C(=O)N[C@@H](CCO)c2ccc(Cl)cc2)CCN(c2ncnc3[nH]ccc23)CC1 [Capivasertib] + CC(=O)c1c(C)c2cnc(Nc3ccc(N4CCNCC4)cn3)nc2n(C2CCCC2)c1=O [Palbociclib] (first compound max 10 µM, 7x7, partner max 10 µM) | -0.0461 | 0.0262 | -0.0279 | -0.0442 | -0.0222 | -0.0106 | 0.0199 | -0.0256 | -0.0158 | -0.0588 | -0.0609 | 0.0247 | -0.0343 | 0.0028 | 0.0625 | -0.0463 | 0.0059 | -0.0297 | 0.043 | 0.014
CC1(C)CCC(CN2CCN(c3ccc(C(=O)NS(=O)(=O)c4ccc(NCC5CCOCC5)c([N+](=O)[O-])c4)c(Oc4cnc5[nH]ccc5c4)c3)CC2)=C(c2ccc(Cl)cc2)C1 [Venetoclax] + CCN(CCO)CCCOc1ccc2c(Nc3cc(CC(=O)Nc4cccc(F)c4)[nH]n3)ncnc2c1 [AZD2811] (first compound max 1 µM, 7x7, partner max 1 µM) | -0.0038 | 0.046 | -0.0105 | -0.0209 | 0.106 | -0.0231 | -0.0234 | 0.0596 | -0.0052 | -0.0193 | -0.0587 | -0.0581 | -0.0346 | -0.0071 | 0.0096 | -0.0401 | 0.0684 | -0.046 | -0.0483 | -0.0394
